# Literature values as cited in patent US20040170996A1, “Cytotoxic T-Lymphocyte antigen-4 or interleukin-10 polymorphisms as predictors of response to therapeutic intervention” (priority 2001, published 2004).
# Test system: interleukin-10 production
# Settings: several in vitro studies
structure (smiles),measurement,value
"NC(=O)c1ncn([C@@H]2O[C@H](CO)[C@@H](O)[C@H]2O)n1 [Ribavirin, ribavirin]",Effect on interleukin-10 production,downregulate interleukin-10 production
